We go through three compounds from publication PMC8418874 (European journal of medicinal chemistry, 2018).

Data set [1] relates to human ovarian cancer cells (SKOV-3). The experiment in a line: Antiproliferative activity / viability assay. The note with it: SK-OV-3, 24 h, read-out: inhibition of cell proliferation. In kind it is cell-based.
For the next data set, the system named is HT-1080 cells. The experiment in a line: Cellular uptake by flow cytometry. In kind it is cell-based, human. As to conditions: HT-1080, Dox 5 μM, Dox-SS-Pyr 50 μM, Dox-SS-[C(WR)4K] 50 μM, 3 h, 37 °C, serum-free medium, triplicate. In general terms: A flow cytometer gives signals particle by particle.
The subject of data set [2] is SKOV-3 cells. The experiment in a line: Cellular uptake by flow cytometry. As to conditions: SKOV-3, Dox 5 μM, Dox-SS-Pyr 50 μM, Dox-SS-[C(WR)4K] 50 μM, 3 h, 37 °C, serum-free medium, triplicate. The class given is cell-based, human.
Data set [3] deals with SKOV-3 cells. The data set can be described thus: Fluorescence microscopy, cellular localization. As to conditions: SKOV-3, 5 μM, DAPI nuclear stain. In kind it is cell-based, human.

For `COc1cccc2c1C(=O)c1c(O)c3c(c(O)c1C2=O)C[C@@](O)(C(=O)CO)C[C@@H]3O[C@H]1C[C@H](N)[C@H](O)[C@H](C)O1` [Dox, Doxorubicin], in data set [1], the inhibition at 5 µM is 76%. Further, the “cellular uptake (mean fluorescence)” value was “higher cellular uptake in SKOV-3 and HT-1080 cells” with HT-1080 cells; “higher cellular uptake in SKOV-3 and HT-1080 cells” in the data set with SKOV-3 cells [2]. Moreover, the cellular localization entry in the data set on SKOV-3 cells [3] (after 1 h) and in the data set with SKOV-3 cells [3] (after 24 h) was “localized in the nucleus” each time.
`COc1cccc2c1C(=O)c1c(O)c3c(c(O)c1C2=O)C[C@@](O)(C(=O)CO)C[C@@H]3O[C@H]1C[C@H](NC(=N)CCCS)[C@H](O)[C@H](C)O1` [Dox-SH, thiolated doxorubicin]: the cellular localization entry with SKOV-3 cells [3] (after 1 h) is reported as “distributed mostly outside the nucleus”.
Same read-out and setting: the value for `COc1cccc2c1C(=O)c1c(O)c3c(c(O)c1C2=O)C[C@@](O)(C(=O)CO)C[C@@H]3O[C@H]1C[C@H](NC(=N)CCCSSc2ccccn2)[C@H](O)[C@H](C)O1` [Dox-SS-Pyr, pyridyl doxorubicin] was “distributed mostly outside the nucleus”.
